Results from EPA's CvTdb concentration-time database.

Columns and labels:
[1] = system: Rat; test: concentration in plasma after dosing; conditions: dosed: Wyeth-14643, 2.0 mg/kg, oral, Male, Sprague-Dawley
[2] = system: Rat; test: concentration in plasma after dosing
[3] = system: Rat; test: concentration in thymus after dosing; conditions: 8 h; dosed: Bis 2-Chloroethoxy Methane; 20 mg/kg; iv; Female; Harlan Sprague-Dawley
[4] = system: Rat; test: concentration in liver after dosing
[5] = system: Rat; test: concentration in thymus after dosing; conditions: 1 h; dosed: Bis 2-Chloroethoxy Methane; 20 mg/kg; iv; Female; F344
[6] = system: Rat; test: concentration in thymus after dosing; conditions: dosed: Bis 2-Chloroethoxy Methane, 20 mg/kg, iv
[7] = system: Rat; test: concentration in heart after dosing; conditions: dosed: Bis 2-Chloroethoxy Methane, 20 mg/kg, iv
[8] = system: Rat; test: concentration in plasma after dosing; conditions: 5 h; dosed: Bis 2-Chloroethoxy Methane; 20 mg/kg; iv; Male; F344
[9] = system: Rat; test: concentration in kidney after dosing; conditions: dosed: Fluorotelomer alcohol 8+2, oral
[10] = system: Rat; test: concentration in brain after dosing; conditions: dosed: Fluorotelomer alcohol 8+2, oral

Cc1cccc(Nc2cc(Cl)nc(SCC(=O)O)n2)c1C
[1]
Conditions | concentration in plasma [ng/mL]
0.5 h | 1670
5 h | 507

concentration in plasma [ng/mL], [2], Male, Sprague-Dawley
Conditions | dosed: Wyeth-14643, 1.0 mg/kg | dosed: Wyeth-14643, 2.0 mg/kg | dosed: Wyeth-14643, 5.0 mg/kg
0.25 h, iv | – | 8890 | –
0.25 h, oral | 480 | 941 | 2340
0.5 h, iv | – | 4960 | –
0.5 h, oral | 493 | 1350 | 3240
1 h, iv | – | 2670 | –
1 h, oral | 548 | 1010 | 4080
2 h, iv | – | 682 | –
2 h, oral | 373 | 466 | 1930
2.5 min, iv | – | 28300 | –
3 h, iv | – | 253 | –
3 h, oral | 145 | 972 | –
4 h, iv | – | 218 | –
4 h, oral | – | 273 | 1050
5 h, oral | 357 | 312 | –
5 min, iv | – | 20700 | –
5 min, oral | – | 270 | 520
6 h, oral | – | 118 | 506
7 h, oral | 124 | – | –
8 h, oral | – | 305 | 421
24 h, oral | – | – | 129

ClCCOCOCCCl [Bis 2-Chloroethoxy Methane]
Conditions | concentration in plasma [ng/mL] | concentration in thymus [ng/g]
[3] | – | 13.2
[5] | – | 3420
[8] | 36.5 | –

dosed: Bis 2-Chloroethoxy Methane, iv
Conditions | concentration in liver, [4] [ng/g] | concentration in plasma, [2] [ng/mL]
1 h, 20 mg/kg, Female, F344 | 526 | 1380
1 h, 20 mg/kg, Male, F344 | 1620 | 1400
1 h, 40 mg/kg, Male, Harlan Sprague Dawley | – | 3850
2 h, 20 mg/kg, Female, F344 | 65.2 | 202
2 h, 20 mg/kg, Male, F344 | 640 | 336
2 h, 40 mg/kg, Male, Harlan Sprague Dawley | – | 648
3 h, 20 mg/kg, Female, F344 | – | 82.8
3 h, 20 mg/kg, Male, F344 | 121 | 119
3 h, 40 mg/kg, Male, Harlan Sprague Dawley | – | 333
4 h, 20 mg/kg, Female, F344 | – | 79
4 h, 20 mg/kg, Male, F344 | 66.5 | 117
4 h, 40 mg/kg, Male, Harlan Sprague Dawley | – | 139
5 h, 20 mg/kg, Female, F344 | – | 25.4
5 h, 20 mg/kg, Male, F344 | 31.1 | 32.6
5.333 h, 40 mg/kg, Male, Harlan Sprague Dawley | – | 74.6
6 h, 20 mg/kg, Female, F344 | – | 10.2
6 h, 20 mg/kg, Male, F344 | 26.2 | 28
6.667 h, 40 mg/kg, Male, Harlan Sprague Dawley | – | 45.9
7 h, 20 mg/kg, Male, F344 | – | 16
8 h, 20 mg/kg, Female, Harlan Sprague-Dawley | – | 11.2
8 h, 40 mg/kg, Male, Harlan Sprague Dawley | – | 15.7
10 min, 20 mg/kg, Female, F344 | 1570 | 9580
10 min, 20 mg/kg, Male, F344 | 3090 | 10400
10 min, 40 mg/kg, Male, Harlan Sprague Dawley | – | 23400
20 min, 20 mg/kg, Female, F344 | 2310 | 5400
20 min, 20 mg/kg, Male, F344 | 2860 | 4840
20 min, 40 mg/kg, Male, Harlan Sprague Dawley | – | 10200
40 min, 20 mg/kg, Female, F344 | 662 | 2110
40 min, 20 mg/kg, Male, F344 | 4290 | 2640
40 min, 40 mg/kg, Male, Harlan Sprague Dawley | – | 7610

Conditions | concentration in heart, [7] [ng/g] | concentration in thymus, [6] [ng/g]
1 h, Female, F344 | 1530 | 2600
1 h, Male, F344 | 1400 | 3100
2 h, Female, F344 | 338 | 712
2 h, Male, F344 | 466 | 783
3 h, Female, F344 | 123 | 199
3 h, Male, F344 | 179 | 305
4 h, Female, F344 | 53.5 | 52.4
4 h, Male, F344 | 57.5 | 72.9
5 h, Female, F344 | 38.7 | 62.4
5 h, Male, F344 | 47.8 | 77.9
6 h, Female, F344 | 31.7 | 48.8
6 h, Male, F344 | 31.5 | 29.6
7 h, Female, F344 | – | 26.6
7 h, Male, F344 | 21.1 | 36
8 h, Female, F344 | – | 16.4
8 h, Female, Harlan Sprague-Dawley | 13.3 | 18.1
10 min, Female, F344 | 11300 | 33300
10 min, Male, F344 | 12200 | 66700
20 min, Female, F344 | 6050 | 22300
20 min, Male, F344 | 6780 | 13900
40 min, Female, F344 | 4450 | 12400
40 min, Male, F344 | 7060 | 7360

OCCC(F)(F)C(F)(F)C(F)(F)C(F)(F)C(F)(F)C(F)(F)C(F)(F)C(F)(F)F [Fluorotelomer alcohol 8+2]
Conditions | concentration in brain, [10] [ng/g] | concentration in kidney, [9] [ng/g]
0.5 h, 24 mg/kg, Male, Harlan Sprague Dawley | 4540 | 3380
0.5 h, 24 mg/kg, Male, Harlan Sprague Dawley - this seems too small | 978 | 1060
0.5 h, 80 mg/kg, Female, Harlan Sprague Dawley | 5440 | 2910
1 h, 24 mg/kg, Male, Harlan Sprague Dawley | 2450 | 1560
1 h, 80 mg/kg, Female, Harlan Sprague Dawley | 9090 | 6420
3 h, 24 mg/kg, Male, Harlan Sprague Dawley | 2300 | 1070
3 h, 80 mg/kg, Female, Harlan Sprague Dawley | 8400 | 3900
6 h, 24 mg/kg, Male, Harlan Sprague Dawley | 663 | 460
6 h, 80 mg/kg, Female, Harlan Sprague Dawley | 2060 | 1450
12 h, 24 mg/kg, Male, Harlan Sprague Dawley | 95.5 | 185
12 h, 80 mg/kg, Female, Harlan Sprague Dawley | 679 | 373

Conditions | concentration in liver [ng/g] | concentration in plasma [ng/mL]
[2], 0.25 h, dosed: Fluorotelomer alcohol 8+2, 12 mg/kg, iv, Male, F344 | – | 1590
[2], 0.25 h, dosed: Fluorotelomer alcohol 8+2, 12 mg/kg, oral, Male, Harlan Sprague Dawley | – | 82.2
[2], 0.25 h, dosed: Fluorotelomer alcohol 8+2, 24 mg/kg, oral, Male, Harlan Sprague Dawley | – | 110
[2], 0.25 h, dosed: Fluorotelomer alcohol 8+2, 40 mg/kg, iv, Male, F344 | – | 13000
[2], 0.5 h, dosed: Fluorotelomer alcohol 8+2, 12 mg/kg, iv, Male, F344 | – | 1260
[2], 0.5 h, dosed: Fluorotelomer alcohol 8+2, 12 mg/kg, oral, Male, Harlan Sprague Dawley | – | 215
[2], 0.5 h, dosed: Fluorotelomer alcohol 8+2, 40 mg/kg, iv, Female, Harlan Sprague-Dawley | – | 8470
[2], 0.5 h, dosed: Fluorotelomer alcohol 8+2, 40 mg/kg, iv, Male, F344 | – | 5070
[2], 0.75 h, dosed: Fluorotelomer alcohol 8+2, 12 mg/kg, iv, Male, F344 | – | 422
[2], 0.75 h, dosed: Fluorotelomer alcohol 8+2, 12 mg/kg, oral, Male, Harlan Sprague Dawley | – | 348
[2], 0.75 h, dosed: Fluorotelomer alcohol 8+2, 40 mg/kg, iv, Female, Harlan Sprague-Dawley | – | 2350
[2], 1 h, dosed: Fluorotelomer alcohol 8+2, 12 mg/kg, iv, Male, F344 | – | 625
[2], 1 h, dosed: Fluorotelomer alcohol 8+2, 12 mg/kg, oral, Male, Harlan Sprague Dawley | – | 264
[2], 1 h, dosed: Fluorotelomer alcohol 8+2, 40 mg/kg, iv, Female, Harlan Sprague-Dawley | – | 2720
[2], 3 h, dosed: Fluorotelomer alcohol 8+2, 12 mg/kg, iv, Male, F344 | – | 118
[2], 3 h, dosed: Fluorotelomer alcohol 8+2, 12 mg/kg, oral, Male, Harlan Sprague Dawley | – | 84.4
[2], 3 h, dosed: Fluorotelomer alcohol 8+2, 40 mg/kg, iv, Male, F344 | – | 378
[2], 5 min, dosed: Fluorotelomer alcohol 8+2, 12 mg/kg, iv, Male, F344 | – | 3550
[2], 5 min, dosed: Fluorotelomer alcohol 8+2, 12 mg/kg, oral, Male, Harlan Sprague Dawley | – | 2.61
[2], 5 min, dosed: Fluorotelomer alcohol 8+2, 24 mg/kg, oral, Male, Harlan Sprague Dawley | – | 6.33
[2], 6 h, dosed: Fluorotelomer alcohol 8+2, 12 mg/kg, iv, Male, F344 | – | 48.7
[2], 6 h, dosed: Fluorotelomer alcohol 8+2, 12 mg/kg, oral, Male, Harlan Sprague Dawley | – | 37.1
[2], 6 h, dosed: Fluorotelomer alcohol 8+2, 40 mg/kg, iv, Male, F344 | – | 254
[2], 9 h, dosed: Fluorotelomer alcohol 8+2, 12 mg/kg, iv, Male, F344 | – | 23.8
[2], 9 h, dosed: Fluorotelomer alcohol 8+2, 12 mg/kg, oral, Male, Harlan Sprague Dawley | – | 11.6
[2], 9 h, dosed: Fluorotelomer alcohol 8+2, 24 mg/kg, oral, Male, Harlan Sprague Dawley | – | 40.2
[2], 9 h, dosed: Fluorotelomer alcohol 8+2, 40 mg/kg, iv, Female, Harlan Sprague-Dawley | – | 76.6
[2], 9 h, dosed: Fluorotelomer alcohol 8+2, 40 mg/kg, iv, Male, F344 | – | 47
[2], 12 h, dosed: Fluorotelomer alcohol 8+2, 12 mg/kg, iv, Male, F344 | – | 5.59
[2], 12 h, dosed: Fluorotelomer alcohol 8+2, 12 mg/kg, oral, Male, Harlan Sprague Dawley | – | 4.01
[2], 12 h, dosed: Fluorotelomer alcohol 8+2, 40 mg/kg, iv, Female, Harlan Sprague-Dawley | – | 34.6
[2], 24 h, dosed: Fluorotelomer alcohol 8+2, 12 mg/kg, iv, Male, F344 | – | 4.63
[2], 24 h, dosed: Fluorotelomer alcohol 8+2, 12 mg/kg, oral, Male, Harlan Sprague Dawley | – | 1.18
[2], 24 h, dosed: Fluorotelomer alcohol 8+2, 24 mg/kg, oral, Male, Harlan Sprague Dawley | – | 2.62
[2], 24 h, dosed: Fluorotelomer alcohol 8+2, 40 mg/kg, iv, Female, Harlan Sprague-Dawley | – | 23.2
[4], 0.5 h, dosed: Fluorotelomer alcohol 8+2, 24 mg/kg, oral, Male, Harlan Sprague Dawley | 17700 | –
[4], 0.5 h, dosed: Fluorotelomer alcohol 8+2, 24 mg/kg, oral, Male, Harlan Sprague Dawley - this seems too small | 2190 | –
[4], 0.5 h, dosed: Fluorotelomer alcohol 8+2, 80 mg/kg, oral, Female, Harlan Sprague Dawley | 11600 | –
[4], 1 h, dosed: Fluorotelomer alcohol 8+2, 24 mg/kg, oral, Male, Harlan Sprague Dawley | 3900 | –
[4], 1 h, dosed: Fluorotelomer alcohol 8+2, 80 mg/kg, oral, Female, Harlan Sprague Dawley | 12500 | –
[4], 3 h, dosed: Fluorotelomer alcohol 8+2, 24 mg/kg, oral, Male, Harlan Sprague Dawley | 2230 | –
[4], 3 h, dosed: Fluorotelomer alcohol 8+2, 80 mg/kg, oral, Female, Harlan Sprague Dawley | 9320 | –
[4], 6 h, dosed: Fluorotelomer alcohol 8+2, 24 mg/kg, oral, Male, Harlan Sprague Dawley | 2050 | –
[4], 6 h, dosed: Fluorotelomer alcohol 8+2, 80 mg/kg, oral, Female, Harlan Sprague Dawley | 3970 | –
[4], 12 h, dosed: Fluorotelomer alcohol 8+2, 24 mg/kg, oral, Male, Harlan Sprague Dawley | 604 | –
[4], 12 h, dosed: Fluorotelomer alcohol 8+2, 80 mg/kg, oral, Female, Harlan Sprague Dawley | 1610 | –
